Measured values: patent US20250073255A1, “USE OF FA-TYPE LIPID COMPOUNDS IN PREPARATION OF NUCLEIC ACID DELIVERY REAGENT AND RELATED PRODUCT” (BEIJING BAISHIKANG PHARMACEUTICAL TECHNOLOGY (BSJPHARMA) …, priority 2021, published 2025)

System: C57BL/6 male mice
Assay: In vivo delivery study of lipid nucleic acid mixture (oral gavage, RT-qPCR of PGY-sRNA-26 in tissues)
Design: species or system mouse
Details: for oral delivery of single-stranded sRNA nucleic acids into mouse blood / oral delivery of single-stranded sRNA nucleic acids into mouse brain tissue / oral delivery of single-stranded sRNA nucleic acids into mouse heart tissue / oral delivery of single-stranded sRNA nucleic acids into mouse intestinal tissue / oral delivery of single-stranded sRNA nucleic acids into mouse kidney tissue / oral delivery of single-stranded sRNA nucleic acids into mouse spleen tissue / oral delivery of single-stranded sRNA nucleic acids into mouse stomach tissue / oral delivery of single-stranded sRNA nucleic acids into mouse femur / oral delivery of single-stranded sRNA nucleic acids into mouse liver tissue / oral delivery of single-stranded sRNA nucleic acids into mouse lung tissue: 100 μg lipid:10 nmol PGY-sRNA-26, sampled after 12 hours; for oral delivery of single-stranded sRNA nucleic acids into mouse heart tissue: vs free uptake group; for oral delivery of single-stranded sRNA nucleic acids into mouse intestinal tissue: intestine; for overall delivery efficacy: delivering nucleic acids into each tissue and blood tested: 100 μg lipid:10 nmol PGY-sRNA-26, all tissues and blood tested
How it was run: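 Lipid (100 μg) and 10 nmol 3'-methylated single-stranded PGY-sRNA-26 were heated at 90 °C for 15 min, then given by oral gavage to mice fasted 12 h. Controls were saline and free sRNA. Blood and tissues were taken at 12 h, and levels were measured by stem-loop RT-qPCR relative to U6.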

Row | Structure (SMILES) | oral delivery of single-stranded sRNA nucleic acids into mouse blood | oral delivery of single-stranded sRNA nucleic acids into mouse brain tissue | oral delivery of single-stranded sRNA nucleic acids into mouse heart tissue | oral delivery of single-stranded sRNA nucleic acids into mouse intestinal tissue | oral delivery of single-stranded sRNA nucleic acids into mouse kidney tissue | oral delivery of single-stranded sRNA nucleic acids into mouse spleen tissue | oral delivery of single-stranded sRNA nucleic acids into mouse stomach tissue | oral delivery of single-stranded sRNA nucleic acids into mouse femur | oral delivery of single-stranded sRNA nucleic acids into mouse liver tissue | overall delivery efficacy: delivering nucleic acids into each tissue and blood tested | oral delivery of single-stranded sRNA nucleic acids into mouse lung tissue
1 | CC(=O)CCC=C(C)CCC=C(C)C [Lipid 502, 6,10-dimethylundeca-5,9-dien-2-one] | can effectively orally deliver | can effectively orally deliver | can effectively orally deliver | can effectively orally deliver | can effectively orally deliver | can effectively orally deliver | can effectively orally deliver | – | – | – | –
2 | O=C(O)C/C=C/CC(=O)O [Lipid 607, (E)-hex-3-enedioic acid] | can effectively orally deliver | – | can effectively orally deliver | – | can effectively orally deliver | – | can effectively orally deliver | can effectively orally deliver | can effectively orally deliver | – | –
3 | N[C@H](CCCC(=O)O)C(=O)O [Lipid 625, (2R)-2-aminohexanedioic acid] | can effectively orally deliver | can effectively orally deliver | can effectively orally deliver | can effectively orally deliver | can effectively orally deliver | can effectively orally deliver | can effectively orally deliver | can effectively orally deliver | can effectively orally deliver | best delivery efficacy | can effectively orally deliver
4 | CCCCCCCCCCCCCCCC=O [Lipid 602] | can effectively orally deliver | can effectively orally deliver | can effectively orally deliver | can effectively orally deliver | can effectively orally deliver | can effectively orally deliver | can effectively orally deliver | can effectively orally deliver | can effectively orally deliver | best delivery efficacy | can effectively orally deliver
5 | CCCCCCCCCC=O [Lipid 615] | can effectively orally deliver | can effectively orally deliver | – | can effectively orally deliver | – | can effectively orally deliver | can effectively orally deliver | can effectively orally deliver | can effectively orally deliver | – | can effectively orally deliver
